Measured values from PMC10644342, “Improved Antibacterial Activity of 1,3,4-Oxadiazole-Based Compounds That Restrict Staphylococcus aureus Growth Independent of LtaS Function” (ACS Infectious Diseases, 2023).
Converted amounts (≈) assume the structure as drawn. Read-outs that look alike come from different tables or passages of the source.

Columns and labels:
[1] = system: S. epidermidis; assay: MIC, broth microdilution (CLSI); format: cell-based, Staphylococcus epidermidis; conditions: for MIC: read-out: minimum inhibitory concentration
Procedure: S. aureus, S. epidermidis, E. faecalis, and E. faecium strains were routinely cultivated on tryptic soy agar (TSA) and grown for 18 h at 37 °C. S. aureus single colonies were subsequently transferred into 2 mL of tryptic soy broth (TSB) and grown for a further 18 h at 37 °C while being shaken at 180 rpm. S. pyogenes, S. agalactiae, and S. dysgalactiae strains were routinely cultured on TSA supplemented with 5% sheep blood and grown for 18 h at 37 °C with 5% CO2. E. coli was grown in LB broth at 37 °C. For LtaS-deficient strains, TSB was supplemented with 0.5 M NaCl to provide an osmotically balanced environment and instead grown at 30 °C. For strains harboring the pRMC2 tetracycline inducible vector,[61] the growth medium was supplemented with 10 μg/mL chloramphenicol and […] anhydrotetracycline hydrochloride (Sigma). Phenylalanine-arginine β-naphthylamide (PAβN) (Sigma) was dissolved in sterile water.
B. subtilis, staphylococcal, and enterococcal strains were grown in Mueller Hinton broth (MHB), while streptococcal strains were grown in MHB supplemented with 5% laked horse blood. All strains were grown for 18 h at 37 °C. The overnight cultures were subsequently subcultured 1:200 and grown to the exponential phase (OD600nm = 0.5–0.6) in fresh broth. 1771 and its derivatives 9–14 were reconstituted in DMSO and further diluted by performing a 1:2 serial dilution ranging between 256 and 0.125 μg/mL in a 96-well microtiter plate. One hundred microliters of 0.5 McFarland standardized inoculum (approximately equal to 5 × 10^5 cfu) were then dispensed into each well in the 96-well microtiter plate. The plate was incubated for 18 h at 37 °C.

[2] = system: S. epidermidis strain RP62A; assay: Biofilm prevention, crystal violet assay; format: cell-based, Staphylococcus epidermidis; conditions: for concentration causing a 50% reduction in biofilm formation: 24 h
Procedure: An indication of the biofilm prevention capabilities of 1771 and its derivatives 9–14 was achieved through the application of the crystal violet assay. S. aureus strain SH1000 and S. epidermidis strain RP62A were used, as they are strong biofilm formers. Overnight cultures were diluted 1:200 in fresh TSB containing 0.5% glucose (TSB-G), and 100 μL was added to individual wells in a 96-well microtiter plate. One hundred microliters of 1771 and 9–14 were diluted in TSB-G and added to bacteria at a final concentration ranging from 256 to 0.25 μg/mL with subsequent incubation for 24 h at 37 °C in a static incubator. Following incubation, biofilms were washed four times with ddH2O before being stained with 150 μL of 0.1% crystal violet for 30 min at room temperature. Following a further four washes in ddH2O, wells were resuspended in 200 μL of 7% acetic acid. The absorbance intensity of the crystal violet was measured at abs595nm in a Sunrise plate reader. Biomass formed was measured as a percentage of the no-compound control.

[3] = system: MRSA strain LAC; assay: Time-kill kinetic analysis; format: cell-based, Staphylococcus aureus; conditions: for effect on growth of LAC: 1× MIC, 24 h, inoculum 5 × 10^5 cfu
Procedure: Overnight cultures of MRSA strain LAC were subcultured 1:200 and grown to the exponential phase in fresh MHB. These cultures were subsequently diluted to give 500 μL of MHB containing 5 × 10^5 cfu. […] These suspensions were incubated for 24 h at 37 °C, with 50 μL of the suspension serially diluted 1:10 in 450 μL of phosphate buffered saline (PBS) and plated out on TSA at times 0, 1, 2, 4, 6, and 24 h for enumeration.

[4] = system: E. coli strain K12; assay: Growth inhibition in combination with PAβN; format: cell-based, Escherichia coli; conditions: for concentration at which growth was completely inhibited: E. coli K12, 50 μg/mL PAβN; for MIC: Escherichia coli, E. coli K12, 100 μg/mL PAβN
Procedure: Phenylalanine-arginine β-naphthylamide (PAβN) is a well-studied efflux pump inhibitor, which can also permeabilize the outer membrane of Gram-negative organisms.[40] […] Without the addition of PAβN (0 μg/mL), neither 1771 nor 13 had any growth inhibitory activity at concentrations up to 64 μg/mL. With the addition of 25 μg/mL of PAβN, the E. coli strain K12 could still grow in the presence of 64 μg/mL of 1771 or 13; however, the growth rate was severely impacted in a dose-dependent manner. […] To further evaluate the Gram-negative coverage of 1771 and 13, we also tested 1771 or 13 in combination with PAβN against Pseudomonas aeruginosa strain PAO1, Klebsiella pneumoniae strain 699 (clinical isolate), and Acinetobacter baumannii strain DF1000 (clinical isolate) (Figure S6a–c).
Figure 8 Permeabilization of the outer membrane renders E. coli susceptible to 1771 and 13. Bacterial growth curves of (a) 1771 and (b) 13 (0–64 μg/mL) in combination with 0, 25, 50, and 100 μg/mL of PAβN. The bacterial growth (OD600nm) was plotted against time following 18 h of growth at 37 °C. The icons represent the mean of three biological replicates.

[5] = system: LTA; parameters: method as in PMID 23401520; conditions: cited from earlier work
[6] = system: E. coli strain K12; parameters: method as in PMID 23401520; conditions: initial small-molecule library screen; cited from earlier work
[7] = Staphylococcus epidermidis, strain 305
[8] = Staphylococcus epidermidis, strain 311
[9] = Staphylococcus epidermidis, strain 319
[10] = Staphylococcus epidermidis, strain 322
[11] = Staphylococcus epidermidis, strain 771
[12] = Staphylococcus epidermidis, strain 780
[13] = Staphylococcus epidermidis, strain RP62A
[14] = E. coli K12, 25 μg/mL PAβN, growth rate severely impacted dose-dependently
[15] = E. coli K12, without PAβN (0 μg/mL), 18 h

O=C(COC(=O)Cc1coc2ccc3ccccc3c12)Nc1nnc(-c2ccc(S(F)(F)(F)(F)F)cc2)o1 [Compound 13, 2-Oxo-2-((5-(4-(pentafluoro-l6-sulfaneyl)phenyl)-1,3,4-oxadiazol-2-yl)amino)ethyl 2-(Naphtho[2,1-b]furan-1-yl)acetate]
MIC90 ([1]; Staphylococcus epidermidis): 1 µg/mL (≈ 1.81 µM) | MIC [1, 7]: 0.5 to 1 µg/mL (≈ 0.903 to 1.81 µM) | MIC [1, 8]: 0.5 µg/mL (≈ 0.903 µM) | MIC [1, 9]: 1 µg/mL (≈ 1.81 µM) | MIC [1, 10]: 0.5 µg/mL (≈ 0.903 µM) | MIC [1, 11]: 0.5 µg/mL (≈ 0.903 µM) | MIC [1, 12]: 0.5 to 1 µg/mL (≈ 0.903 to 1.81 µM) | MIC [1, 13]: 0.5 µg/mL (≈ 0.903 µM) | biofilm prevention compared with 1771 [2]: better than 1771 | concentration causing a 50% reduction in biofilm formation [2]: 0.25 µg/mL | effect on growth of LAC [3]: completely inhibited the growth | starting inoculum surviving the exposure ([3]; 4× MIC, LAC): 1% | growth inhibitory concentration [4, 14]: > 64 µg/mL | concentration at which growth was completely inhibited [4]: 64 µg/mL | growth inhibitory concentration [4, 15]: > 64 µg/mL | MIC [4]: 1 µg/mL

O=C(COC(=O)Cc1coc2ccc3ccccc3c12)Nc1nnc(-c2ccccc2)o1 [Compound 1771, 2-Oxo-2-((5-phenyl-1,3,4-oxadiazol-2-yl)amino)ethyl 2-(Naphtho[2,1-b]furan-1-yl)acetate, reference compound]
LTA signal [5]: dose-dependent reduction in the LTA signal | MIC [1, 7]: 8 to 16 µg/mL (≈ 18.7 to 37.4 µM) | MIC [1, 8]: 8 to 16 µg/mL (≈ 18.7 to 37.4 µM) | MIC [1, 9]: 8 to 16 µg/mL (≈ 18.7 to 37.4 µM) | MIC [1, 10]: 16 µg/mL (≈ 37.4 µM) | MIC [1, 11]: 8 to 16 µg/mL (≈ 18.7 to 37.4 µM) | MIC [1, 12]: 8 to 16 µg/mL (≈ 18.7 to 37.4 µM) | MIC [1, 13]: 8 to 16 µg/mL (≈ 18.7 to 37.4 µM) | MIC range against S. epidermidis strains ([1]; collection of S. epidermidis strains): 8 to 16 µg/mL | effect on the growth of Escherichia coli [6]: no effect on the growth | concentration causing a 50% reduction in biofilm formation [2]: 8 µg/mL | effect on growth of LAC [3]: completely inhibited the growth | killing effect ([3]; 4× MIC, LAC): roughly 65% | growth inhibitory concentration [4, 14]: > 64 µg/mL | concentration at which growth was completely inhibited [4]: 64 µg/mL | growth inhibitory concentration [4, 15]: > 64 µg/mL | MIC [4]: 4 µg/mL
